The source of these data is US8658677B2, “Pyridyl-2-methylamino compounds, compositions and uses thereof” (Aria Neurosciences Inc., priority 2011, dated 2014).

Data set [1] can be described thus: Pharmacokinetic characterization including BBB permeability. As to conditions: for Brain Cmax / Cmax: mean ±SD; for F (fraction dose absorbed): accounted for po and iv dose difference; for half-life: read-out: Plasma t1/2 (converted). Type of data set: in vivo, CD-1 WT mice. The protocol:
Pharmacokinetic characterization including BBB permeability of ARN2966 was performed in three months old, male CD-1 WT mice, which received a single oral (po; 25 mg/kg) or intravenous (iv; 5 mg/kg) dose of ARN2966 and were sacrificed 0.25, 0.5, 1, 2, 8, and 24 hr later (n=3 per time point). Plasma and brain concentration of ARN2966 were determined using liquid chromatography-mass spectrometry (LC/MS) (Table I). […] 64.2% of its orally administered dose was absorbed from the alimentary tract. […] This is because of the instability of —CH═N— bond. Therefore, we focused on PK/BBB permeability characterization of ARN2966, where —CH═N— bond was reduced to —CH2—NH—.

The subject of data set [2] is APPSW/PS1dE9 mice. Put plainly: In vivo toxicity during four-month treatment. The following applies: 50 mg/kg/day ip, age six to ten months. The protocol: Female APPSW/PS1dE9 mice received ARN2966 (n=10) or Vehicle (n=15) from the age of six to ten months. ARN2966 (50 mg/kg/day) was given once a day by intraperitoneal injection. […] After conclusion of the experiments, samples of organs from ARN2966 and Vehicle treated animals were subjected to histopathological evaluation conducted by a veterinary pathologist. […] Signs of mild chronic peritonitis related to repeated daily intraperitoneal compound injection, however, were reported in both groups.

[3] abbreviates: male, CD-1, mouse, plasma, IV - 5 mg/kg, mice.
[4] abbreviates: male, CD-1, mouse, plasma, PO - 25 mg/kg, mice.

Like-named read-outs stand apart in the source and are kept apart here.

A word on the Tmax: it is the time from dosing to the highest level. The term AUC(0-inf) denotes the area under the concentration-time curve extrapolated to infinity. The term clearance denotes the rate of elimination divided by the concentration. A low value points to a low capacity for elimination. By Cmax is commonly meant the peak of the concentration-time curve. Consider `Oc1ccccc1NCc1ccccn1` [ARN2966, 2-[(pyridine-2-ylmethyl)-amino]-phenol], for which the “Brain Cmax” value in data set [1] (IV - 5 mg/kg, mice, 5 mg/kg) was 21.4 µg/kg; in data set [1] (IV - 5 mg/kg, mice, listed as ARN 2966, 5 mg/kg) it was 21.4 ± 2.7 µg/kg; in data set [1] (PO - 25 mg/kg, mice), 12.5 ± 2.3 µg/kg. Further, the “F (fraction dose absorbed)” value in data set [1] (PO - 25 mg/kg, 25 mg/kg) was determined as 64.2%; in data set [1] (PO - 25 mg/kg, listed as ARN 2966, 25 mg/kg), 64.20%. The maximal brain concentration in data set [1] (after iv dosing, 5 mg/kg) worked out at 0.11 µM. Besides, the Tmax in data set [1] (male, CD-1, mouse, brain, IV - 5 mg/kg, mice, read-out: Brain Tmax) was determined as 15 min; in data set [1] (male, CD-1, mouse, brain, PO - 25 mg/kg, mice, read-out: Brain Tmax), 30 min; in data set [1] (male, CD-1, mouse, plasma, IV - 5 mg/kg, mice, read-out: Plasma Tmax) it was 15 min; in data set [1] (male, CD-1, mouse, plasma, PO - 25 mg/kg, mice, read-out: Plasma Tmax), 30 min. For the same molecule, the results for the AUC(0-inf) in data set [1] (setting [3]) and in data set [1] (setting [4]) were 1230 ng·h/mL and 3950 ng·h/mL, respectively. This molecule also gave a clearance in data set [1] (setting [3]) of 67.8 mL/min/kg. Further, the Cmax in data set [1] (setting [3]) stood at 1030 ± 440 ng/mL; in data set [1] (setting [4]), 2660 ± 382 ng/mL. Besides, the half-life in data set [1] (setting [3]) is 368 min; in data set [1] (setting [4]) it was 215 min. For the same molecule, in data set [1] (male, CD-1, mouse, plasma, IV - 5 mg/kg, mice, read-out: Vz), the Vd came out at 36 L/kg. Moreover, the “body weight / weight gain” value in data set [2] is reported as “proper rate of age related weight gain”. For the same molecule, in data set [2], the “histopathological evaluation of organs” value is recorded as “No signs of ARN2966 toxicity”. Moreover, in data set [2], the “physical appearance, unprovoked behavior, response to external stimuli” value is given as “no noticeable changes in physical appearance, unprovoked behavior or response to external stimuli”.
